This passage reports zone of inhibition and Activity results from ChEMBL document CHEMBL1955819, “Ketoolivosyl-tetracenomycin C: a new ketosugar bearing tetracenomycin reveals new insight into the substrate flexibility of glycosyltransferase ElmGT” (2012).

Active and inactive are the calls of the source. No cut-off for these calls is given here.

One assay relates to Streptomyces prasinus. In words: Antimicrobial activity against Streptomyces prasinus at 1 mg/mL by disc diffusion assay. The note with it: read-out: DIZ. In kind it is functional.
A further assay concerns Escherichia coli. In words: Antimicrobial activity against Escherichia coli XL1-blue at 1 mg/mL by disc diffusion assay. In kind it is functional, organism-based.
Another assay concerns Rhizomucor miehei. In words: Antimicrobial activity against Mucor miehei at 1 mg/mL by disc diffusion assay. In kind it is functional, organism-based.

In the case of `COC(=O)c1c(O[C@@H]2O[C@@H](C)[C@H](OC)[C@@H](OC)[C@H]2OC)cc2cc3c(c(O)c2c1C)C(=O)[C@]1(OC)C(=O)C=C(OC)[C@@H](O)[C@]1(O)C3=O` [ELLORAMYCIN], the zone of inhibition at 1000 µg/mL with Streptomyces prasinus was determined as 25 mm.

Take `COC(=O)c1c(O[C@H]2C[C@H](O)C(=O)[C@H](C)O2)cc2cc3c(c(O)c2c1C)C(=O)[C@]1(O)C(=O)C=C(OC)[C@@H](O)[C@]1(O)C3=O`: the outcome in the assay on Escherichia coli and in the assay with Rhizomucor miehei was inactive. Moreover, the zone of inhibition at 1000 µg/mL in the assay with Streptomyces prasinus was determined as 12 mm.
